Species on record: Rattus norvegicus
Test: Open TG-GATES - Regimen: Daily Repeat
Type: toxicity, organism-based, Sprague-Dawley
Design: regimen Daily Repeat, gender Male, age 6 weeks
Settings: in vivo, po, 500 mg/kg, route gavage, dose level High; for APTT / Bas / Eos / Fbg / Hb / Ht / Lym / MCH / MCHC / MCV / Mono / Neu / PT / Plat / RBC / Ret / WBC: tissue Blood; for KIDNEY_L / KIDNEY_R / KIDNEY_TOTAL: tissue Kidney; for LIVER: tissue Liver; for A/G / ALP / ALT / AST / BUN / CRE / Ca / Cl / DBIL / GLC / IP / K / LDH / Na / PL / RALB / TBIL / TC / TG / TP / gamma-GTP: tissue Plasma

CN1C(=O)OC(C)(C)C1=O [TRIMETHADIONE]
TERMINAL_BW (72 h, time 3 day): 231.2 g | APTT (72 h, time 3 day): 19.5 s | Bas (72 h, time 3 day): 0.2% | Eos (72 h, time 3 day): 0.6% | Fbg (72 h, time 3 day): 280 mg/dL | Hb (72 h, time 3 day): 13.7 g/dL | Ht (72 h, time 3 day): 40.3% | Lym (72 h, time 3 day): 80% | MCH (72 h, time 3 day): 21.4 pg | MCHC (72 h, time 3 day): 34% | MCV (72 h, time 3 day): 63 fL | Mono (72 h, time 3 day): 3.2% | Neu (72 h, time 3 day): 15.6% | PT (72 h, time 3 day): 13.3 s | Plat (72 h, time 3 day): 127.8 x10_4/uL | RBC (72 h, time 3 day): 640 x10_4/ul | Ret (72 h, time 3 day): 5.1% | WBC (72 h, time 3 day): 107.7 x10_2/uL | KIDNEY_L (72 h, time 3 day): 1.1 g | KIDNEY_R (72 h, time 3 day): 1 g | KIDNEY_TOTAL (72 h, time 3 day): 2.1 g | LIVER (72 h, time 3 day): 13.3 g | A/G (72 h, time 3 day): 0.8 | ALP (72 h, time 3 day): 1686.2 IU/L | ALT (72 h, time 3 day): 57.2 IU/L | AST (72 h, time 3 day): 106.6 IU/L | BUN (72 h, time 3 day): 16 mg/dL | CRE (72 h, time 3 day): 0.2 mg/dL | Ca (72 h, time 3 day): 11.2 mg/dL | Cl (72 h, time 3 day): 99.4 meq/L | DBIL (72 h, time 3 day): 0.006 mg/dL | GLC (72 h, time 3 day): 169.4 mg/dL | IP (72 h, time 3 day): 7.7 mg/dL | K (72 h, time 3 day): 4.5 meq/L | LDH (72 h, time 3 day): 114.8 IU/L | Na (72 h, time 3 day): 143 meq/L | PL (72 h, time 3 day): 160 mg/dL | RALB (72 h, time 3 day): 2.7 g/dL | TBIL (72 h, time 3 day): 0.04 mg/dL | TC (72 h, time 3 day): 88.4 mg/dL | TG (72 h, time 3 day): 70.6 mg/dL | TP (72 h, time 3 day): 5.8 g/dL | gamma-GTP (72 h, time 3 day): 1 IU/L | TERMINAL_BW ([…], time 7 day): 268.1 g | TERMINAL_BW ([…], time 14 day): 306.3 g | TERMINAL_BW ([…], time 28 day): 346.7 g | APTT ([…], time 7 day): 15.5 s | Bas ([…], time 7 day): 0.6% | Eos ([…], time 7 day): 0.8% | Fbg ([…], time 7 day): 272.6 mg/dL | Hb ([…], time 7 day): 13.4 g/dL | Ht ([…], time 7 day): 39% | Lym ([…], time 7 day): 70.4% | MCH ([…], time 7 day): 21.2 pg | MCHC ([…], time 7 day): 34.4% | MCV ([…], time 7 day): 61.8 fL | Mono ([…], time 7 day): 4.2% | Neu ([…], time 7 day): 24% | PT ([…], time 7 day): 14.8 s | Plat ([…], time 7 day): 109.8 x10_4/uL | RBC ([…], time 7 day): 630.8 x10_4/ul | Ret ([…], time 7 day): 4.4% | WBC ([…], time 7 day): 138.4 x10_2/uL | APTT ([…], time 14 day): 33.5 s | Bas ([…], time 14 day): 0.2% | Eos ([…], time 14 day): 0.4% | Fbg ([…], time 14 day): 282.6 mg/dL | Hb ([…], time 14 day): 14 g/dL | Ht ([…], time 14 day): 40.3% | Lym ([…], time 14 day): 77.2% | MCH ([…], time 14 day): 21.1 pg | MCHC ([…], time 14 day): 34.8% | MCV ([…], time 14 day): 60.7 fL | Mono ([…], time 14 day): 4.2% | Neu ([…], time 14 day): 17% | PT ([…], time 14 day): 14 s | Plat ([…], time 14 day): 116.4 x10_4/uL | RBC ([…], time 14 day): 664 x10_4/ul | Ret ([…], time 14 day): 4.5% | WBC ([…], time 14 day): 86.5 x10_2/uL | APTT ([…], time 28 day): 19.2 s | Bas ([…], time 28 day): 0.2% | Eos ([…], time 28 day): 0.8% | Fbg ([…], time 28 day): 288.6 mg/dL | Hb ([…], time 28 day): 15.4 g/dL | Ht ([…], time 28 day): 43.1% | Lym ([…], time 28 day): 68.2% | MCH ([…], time 28 day): 20.6 pg | MCHC ([…], time 28 day): 35.7% | MCV ([…], time 28 day): 57.9 fL | Mono ([…], time 28 day): 3.4% | Neu ([…], time 28 day): 27.2% | PT ([…], time 28 day): 14.5 s | Plat ([…], time 28 day): 103 x10_4/uL | RBC ([…], time 28 day): 744.8 x10_4/ul | Ret ([…], time 28 day): 2.3% | WBC ([…], time 28 day): 84.6 x10_2/uL | KIDNEY_L ([…], time 7 day): 1.2 g | KIDNEY_R ([…], time 7 day): 1.2 g | KIDNEY_TOTAL ([…], time 7 day): 2.4 g | KIDNEY_L ([…], time 14 day): 1.3 g | KIDNEY_R ([…], time 14 day): 1.3 g | KIDNEY_TOTAL ([…], time 14 day): 2.6 g | KIDNEY_L ([…], time 28 day): 1.5 g | KIDNEY_R ([…], time 28 day): 1.4 g | KIDNEY_TOTAL ([…], time 28 day): 2.9 g | LIVER ([…], time 7 day): 16.6 g | LIVER ([…], time 14 day): 17.4 g | LIVER ([…], time 28 day): 18.4 g | A/G ([…], time 7 day): 0.8 | ALP ([…], time 7 day): 1535.2 IU/L | ALT ([…], time 7 day): 62.6 IU/L | AST ([…], time 7 day): 121 IU/L | BUN ([…], time 7 day): 16 mg/dL | CRE ([…], time 7 day): 0.2 mg/dL | Ca ([…], time 7 day): 10.9 mg/dL | Cl ([…], time 7 day): 97.2 meq/L | DBIL ([…], time 7 day): 0.016 mg/dL | GLC ([…], time 7 day): 179 mg/dL | IP ([…], time 7 day): 7.7 mg/dL | K ([…], time 7 day): 4 meq/L | LDH ([…], time 7 day): 81.4 IU/L | Na ([…], time 7 day): 146.2 meq/L | PL ([…], time 7 day): 166.2 mg/dL | RALB ([…], time 7 day): 2.8 g/dL | TBIL ([…], time 7 day): 0.042 mg/dL | TC ([…], time 7 day): 85 mg/dL | TG ([…], time 7 day): 96.8 mg/dL | TP ([…], time 7 day): 6.1 g/dL | gamma-GTP ([…], time 7 day): 1.6 IU/L | A/G ([…], time 14 day): 0.9 | ALP ([…], time 14 day): 1426.4 IU/L | ALT ([…], time 14 day): 57 IU/L | AST ([…], time 14 day): 117.4 IU/L | BUN ([…], time 14 day): 16.8 mg/dL | CRE ([…], time 14 day): 0.2 mg/dL | Ca ([…], time 14 day): 10.7 mg/dL | Cl ([…], time 14 day): 100.6 meq/L | DBIL ([…], time 14 day): 0.01 mg/dL | GLC ([…], time 14 day): 181.6 mg/dL | IP ([…], time 14 day): 6.7 mg/dL | K ([…], time 14 day): 3.6 meq/L | LDH ([…], time 14 day): 127.6 IU/L | Na ([…], time 14 day): 146.2 meq/L | PL ([…], time 14 day): 169.6 mg/dL | RALB ([…], time 14 day): 3.1 g/dL | TBIL ([…], time 14 day): 0.034 mg/dL | TC ([…], time 14 day): 97.4 mg/dL | TG ([…], time 14 day): 59.2 mg/dL | TP ([…], time 14 day): 6.5 g/dL | gamma-GTP ([…], time 14 day): 1.6 IU/L | A/G ([…], time 28 day): 0.9 | ALP ([…], time 28 day): 1105.4 IU/L | ALT ([…], time 28 day): 57.8 IU/L | AST ([…], time 28 day): 141.2 IU/L | BUN ([…], time 28 day): 15.6 mg/dL | CRE ([…], time 28 day): 0.3 mg/dL | Ca ([…], time 28 day): 10.4 mg/dL | Cl ([…], time 28 day): 97.8 meq/L | DBIL ([…], time 28 day): 0.006 mg/dL | GLC ([…], time 28 day): 176 mg/dL | IP ([…], time 28 day): 6.2 mg/dL | K ([…], time 28 day): 3.6 meq/L | LDH ([…], time 28 day): 83.2 IU/L | Na ([…], time 28 day): 145 meq/L | PL ([…], time 28 day): 155.2 mg/dL | RALB ([…], time 28 day): 3.1 g/dL | TBIL ([…], time 28 day): 0.032 mg/dL | TC ([…], time 28 day): 83.8 mg/dL | TG ([…], time 28 day): 122.8 mg/dL | TP ([…], time 28 day): 6.9 g/dL | gamma-GTP ([…], time 28 day): 1.4 IU/L
